What was measured:
[1] = test system: βTC6 cells; assay: Cell survival assay, intracellular ATP, βTC6 cells treated with Tm; assay type: cell-based; conditions: 72 h, FIG. 2C
Excerpt: The measurement of intracellular ATP level was use as a surrogate assay for cell viability. […] To confirm the authenticity of 13d's protective effect on β-cell viability (not simply an increase in ATP-specific measurement), we used the MTT assay, which measures the activity of NAD(P)H-dependent cellular oxidoreductase enzymes, as an orthogonal method to measure cell viability. […] To determine whether the protective effect of 13d on β-cells is specific to INS-1 cells, another β-cell line, βTC6, was used. […] In addition, compound 13d on its own had no effect on β-cell viability in both cell lines (FIG. 2C-D). […]
INS-1 cells or βTC6 cells were seeded at 3×10^3 cells/well in a 384-well plate and treated with compounds at the indicated concentrations. […] Cell viability was measured with an EnVision multilabel plate reader (PerkinElmer, MA, USA).

[2] = test system: cleaved caspase-3; assay: Western blotting of cleaved caspase-3 in Tm-treated INS-1 cells; assay type: cell-based, rat; conditions: Tm co-treatment, 24 h
Procedure: To determine whether the increase in β-cell viability following treatment with 13d is caused by a suppression of apoptotic cell death, several apoptosis-related makers were measured. First, levels of cleaved caspase-3 and cleaved PARP were assayed by Western blotting. Caspase-3, a member of executioner caspases activated by cleavage, plays essential roles in initiating apoptotic signaling and executing the final stages of cell death, whereas the nuclear enzyme poly (ADP-ribose) polymerase (PARP) plays an important role in a number of cellular processes involving DNA repair and cell death. […] However, upon severe ER stress, caspase 3 undergoes proteolytic cleavage to produce two subunits that dimerize to form the active enzyme, which in turns cleaves PARP. […] A further assessment of apoptotic INS-1 cell death was performed using TUNEL assays to detect nuclear DNA fragmentation (a consequence of cell apoptosis) in situ.
INS-1 cells were seeded in 60-mm dishes at 8×10^5 cells/dish and treated for the indicated times. Cells were then washed with PBS and lysed with lysis buffer (Cell Signaling Technology, Danvers, Mass.) containing EDTA (Thermo, Ill.) and phosphatase inhibitors (Thermo). Aliquots of 20 μg total protein were separated on 7% SDS-PAGE gels (Life Technologies) and transferred to PVDF membranes (Life Technologies). […]

[3] = test system: XBP1s mRNA; assay: XBP1s mRNA (qRT-PCR and RT-PCR with gel electrophoresis) in Tm-treated INS-1 cells; assay type: cell-based, rat; conditions: Tm 0.1 μg/mL co-treatment, 8 h
Procedure: INS-1 cells were treated with or without Tm (0.1 μg/mL) in the presence of 13d or DMSO for 8 h. (A) XBP1s mRNA levels were analyzed by qRT-PCR. Relative mRNA levels were normalized against the housekeeping gene Cyclophilin A using the comparative CT method. ** P<0.01 compared with Tm treatment alone. Bars indicate SD. (B) XBP1 mRNA levels were analyzed by RT-PCR and the products were resolved by agarose gel electrophoresis. The full-length (unspliced, XBP1u) and spliced (XBP1s) forms of XBP1 mRNA are indicated. Cyclophilin A mRNA was used as a loading control. Quantification was analyzed by ImageJ program shown at the bottom. The data shown are representative of 3 independent experiments.
Next, we determined the effect of 13d on the activation of IRE1α in β-cells under ER stress. […] We therefore used XBP1 splicing as a marker for the activation of the IRE1α pathway and determined the effect of 13d on IRE1α-mediated XBP1 splicing in INS-1 cells in the presence of Tm.
INS-1 cells were seeded at 4×10^5 cells/well in 6-well plates and treated with compounds for the indicated times. […] Relative mRNA levels were normalized against the housekeeping gene Cyclophilin A and were determined by ΔΔCt calculated from the difference in ΔCt values between the target gene and Cyclophilin A with and without treatment, based on comparative CT (cycle threshold) method. […]

Question: `O=C(NCc1ccc(C(F)(F)F)cc1)c1cccc(CN2CCCCC2)c1` [Compound 13d, N-(4-trifluoromethylphenmethyl)-3-(N-piperidinyl)methyl benzamide] was tested. Which “viability of βTC6 cells under Tm treatment (intracellular ATP)” value ([1]; Tm 0.3 μg/mL) did it give?
Answer: rescued the viability of βTC6 cells in a dose-dependent manner

Question: What about the “effect of compound on its own on β-cell viability” value ([1]; βTC6 cells, no Tm) of the same molecule?
Answer: no effect

Question: What about the “Tm-induced cleavage of caspase-3” value [2] of the same molecule?
Answer: completely or significantly diminished

Question: And the “Tm-induced increase in XBP1s mRNA level (qRT-PCR)” value [3]?
Answer: abolished

Question: And the “Tm-induced generation of XBP1s mRNA (RT-PCR, electrophoretic separation)” value ([3]; FIG. 6B)?
Answer: inhibits

Source: US11203582B2, “Benzamide derivatives for inhibiting endoplasmic reticulum (ER) stress” (The Board of Regents of the University of Oklahoma, priority 2017, dated 2021)
